Results: patent US11058686B2, “5-(pyrimidin-4-yl)-2-(pyrrolidin-1-yl)nicotinonitrile compounds as IKKE, TBK1 and/or SIK2 kinases inhibitors” (DOMAINEX LIMITED, priority 2017, dated 2021)
Read-outs that look alike come from different tables or passages of the source.

How the values were obtained:
[1] = Pharmacokinetic evaluation in female Balb-C mice after intravenous administration; format: in vivo; conditions: for half-life / t½: terminal half life in plasma (estimated); for half-life: read-out: t½ (converted); for Vd: Vd at steady state
Experimental: Pharmacokinetic evaluation was performed in female Balb-C mice. For intravenous administration (IV) compounds were typically dosed at 0.5 mg/Kg in a dose volume of 5 mL/Kg via the tail vein. Compounds were typically dosed in a vehicle of 5% DMSO/95% (Kelptose 20% w/v in phosphate buffered saline (PBS) pH 7.4). Other dosing vehicles known to those skilled in the art can also be used.
Blood samples were taken by cardiac puncture under terminal anaesthesia (isoflurane) at 8 time points between 1 minute and 10 hours following IV administration, typically 1 min, 5 min, 15 min, 30 min, 1 h, 3 h, 6 h and 10 h post dosing. In some instances 2 h, 4 h and 8 h were used for the final 3 time points due to greater convenience. N=3 animals were used per time point. Plasma was immediately obtained by centrifugation, and the resulting samples frozen until analysis. Samples, along with a calibration curve prepared by spiking the compounds into control plasma, were subsequently prepared for quantitative analysis by precipitation of the plasma proteins with acetonitrile. Analysis was by ultra-high performance liquid chromatography (Agilent 1290 system) coupled to time-of-flight mass spectrometry, using electrospray ionisation (Agilent 6550 system). Pharmacokinetic parameters were determined by non-compartmental analysis of mean concentration data using Phoenix WinNonlin v6.4
The volume of distribution (Vd) is the theoretical volume into which a drug appears to be distributed assuming it is present at the same concentration everywhere as it is in plasma.
The Vd at steady state (Vdss) is calculated by multiplying the clearance (Cl) by the mean residence time (MRT). Clearance is measured by dividing the dose by the Area under the concentration time curve. Cl=Dose/AUC0-∞ Vdss=Cl×MRT
The mean residence time is calculated by dividing the area under the second moment curve (AUMC) by the area under the concentration time curve (AUC). The second moment curve can be generated by plotting […] MRT=AUMC/AUC (ii) t1/2 in Mice (Estimated)
The compound half life (t1/2) is the time for the concentration of the drug to halve in the plasma. The terminal half life was typically estimated from the gradient of a log concentration/time plot using the last 3 points. Both the Cl and the Vd contribute to the observed half life. A larger Vd and smaller Cl gives a longer t1/2.

[2] = Human hepatocyte (liver cell) stability; format: in vitro ADME; conditions: intrinsic clearance, cryopreserved pooled human hepatocytes, 3 μM compound, 0-60 min; for Human Heps (μL/min/10^6 cells): Table 5, comparative examples; for Human hepatocyte stability (μL/min/10^6 cells): Table 4
Experimental: Commercially available cryopreserved pooled human hepatocytes were purchased and stored in liquid nitrogen prior to use. Williams E media supplemented with 2 mM L-glutamine and 25 mM HEPES and the appropriate test compound (final substrate concentration 3 μM; final DMSO concentration 0.25%) were pre-incubated at 37° C. prior to the addition of a suspension of cryopreserved human hepatocytes (final cell density 0.5×10^6 viable cells/mL in Williams E media supplemented with 2 mM L-glutamine and 25 mM HEPES) to initiate the reaction. The final incubation volume is 500 μL. Two control compounds were included in each test alongside the vehicle control, typically verapamil and umbelliferone.
The reactions were stopped after 0 min, 5 min, 20 min, 40 min and 60 min by transferring 50 μL of the incubate to 100 μL methanol containing an internal standard. The termination plates were subsequently centrifuged at 2500 rpm at 4° C. to precipitate the protein. Following protein precipitation the sample supernatants are combined in cassettes of up to 4 compounds and analysed by LC-MS/MS conditions.
The In peak area ratio (compound peak area/internal standard peak area) was plotted against time and the gradient of the line determined. Elimination rate constant (k)=−(gradient) Half life(t1/2)(min)=0.693/k V(μL/10^6 cells)=Incubation volume (μL)/number of cells in incubation (×10^6) Intrinsic Clearance(Clint)(μL/min/million cells)=V×0.693/t1/2
If the two control compounds are not within historical specified limits then the results are rejected and the experiment repeated.

IKKε = molecular target: T1, IKKε (Homo sapiens, UniProt Q14164); test: IKKε enzyme potency, time-resolved fluorescence Lanthascreen kinase assay; format: biochemical; conditions: IC50 at apparent Km for ATP (20 μM), 1 h reaction; read-out: Inhibition of IKKε
T1 sequence (Q14164 1-716): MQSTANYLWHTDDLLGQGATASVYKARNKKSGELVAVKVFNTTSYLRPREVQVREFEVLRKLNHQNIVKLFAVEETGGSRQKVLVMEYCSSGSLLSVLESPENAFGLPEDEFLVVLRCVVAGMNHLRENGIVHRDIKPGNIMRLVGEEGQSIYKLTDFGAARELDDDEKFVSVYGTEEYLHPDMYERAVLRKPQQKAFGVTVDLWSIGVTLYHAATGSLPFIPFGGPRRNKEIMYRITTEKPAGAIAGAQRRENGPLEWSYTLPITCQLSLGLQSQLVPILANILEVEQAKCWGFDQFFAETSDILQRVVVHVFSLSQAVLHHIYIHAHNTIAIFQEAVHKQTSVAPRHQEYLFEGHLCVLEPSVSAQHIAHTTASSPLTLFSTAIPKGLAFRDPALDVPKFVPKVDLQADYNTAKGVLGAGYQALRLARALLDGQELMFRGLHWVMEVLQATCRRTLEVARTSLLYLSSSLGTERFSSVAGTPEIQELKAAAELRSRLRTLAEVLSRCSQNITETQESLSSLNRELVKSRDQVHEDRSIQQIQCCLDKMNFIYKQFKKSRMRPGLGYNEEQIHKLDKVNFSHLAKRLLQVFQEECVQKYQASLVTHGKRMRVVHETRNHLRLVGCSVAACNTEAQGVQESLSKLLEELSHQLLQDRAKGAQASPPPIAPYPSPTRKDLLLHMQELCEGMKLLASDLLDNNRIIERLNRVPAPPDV
Experimental: (§1) Compounds of the invention (synthesised as described above), and Comparative Examples 1 to 5 (which may be synthesised as described in WO 2014/128486), were tested for potency against the IKKε and TBK1 enzyme as follows:
(§2) Inhibition studies were performed using a time-resolved fluorescence-based Lanthascreen™ assay. Phosphorylation of a fluorescein-labelled substrate peptide is measured using terbium-labeled phosphospecific antibodies. Terbium is excited at 340 nm and the FRET energy transfer to fluorescein is measured at 495 and 520 nm. The emission ratio between 520 and 495 is a measure of the level of phosphorylation of the substrate by the kinase.
(§3) Kinase inhibition assays (5 μL) were performed at 20° C. in 384-well plate format. Compound IC50 values were determined at the apparent Km for ATP (20 μM) based on a […] assay (Invitrogen) using 8 or 10 point curves in duplicate. The final reaction conditions contained 380 nM fluorescein-IkBα substrate (DRHDSGLDSMKDE) [SEQ ID No 1], 20 μM ATP, 0.9-3 nM IKKε or or 6-8 nM TBK1 kinase respectively, and 1% DMSO in kinase assay buffer consisting of 50 mM HEPES (pH 7.5), 10 mM MgCl2, 1 mM EGTA, 0.05% Brij-35.
(§4) Compound dilutions were prepared from 10 mM DMSO stocks by dilution into DMSO. Compound dilution series were further diluted in kinase assay buffer to give a 5% DMSO stock, the final concentration in the assay being 1% DMSO.
(§5) The kinase phosphorylation assay was initiated by the addition of the kinase and the reaction was allowed to proceed for 1 h or 2.5 h for IKKε and TBK1 kinase respectively. Both conditions were within the linearity of the phosphorylation. The reaction was stopped by the addition of 10 mM EDTA, and phosphorylation was detected after a 1 hour incubation with 1.5 nM terbium-labelled antibody against phosphorylation at Serine 32 on the IkBα peptide, both in TR-FRET dilution buffer (Invitrogen).

TBK1 = molecular target: T2, TBK1 (Homo sapiens, UniProt Q9UHD2); test: TBK1 enzyme potency, time-resolved fluorescence Lanthascreen kinase assay; format: biochemical; conditions: IC50 at apparent Km for ATP (20 μM), 2.5 h reaction; read-out: Inhibition of TBK1
T2 sequence (Q9UHD2 1-729): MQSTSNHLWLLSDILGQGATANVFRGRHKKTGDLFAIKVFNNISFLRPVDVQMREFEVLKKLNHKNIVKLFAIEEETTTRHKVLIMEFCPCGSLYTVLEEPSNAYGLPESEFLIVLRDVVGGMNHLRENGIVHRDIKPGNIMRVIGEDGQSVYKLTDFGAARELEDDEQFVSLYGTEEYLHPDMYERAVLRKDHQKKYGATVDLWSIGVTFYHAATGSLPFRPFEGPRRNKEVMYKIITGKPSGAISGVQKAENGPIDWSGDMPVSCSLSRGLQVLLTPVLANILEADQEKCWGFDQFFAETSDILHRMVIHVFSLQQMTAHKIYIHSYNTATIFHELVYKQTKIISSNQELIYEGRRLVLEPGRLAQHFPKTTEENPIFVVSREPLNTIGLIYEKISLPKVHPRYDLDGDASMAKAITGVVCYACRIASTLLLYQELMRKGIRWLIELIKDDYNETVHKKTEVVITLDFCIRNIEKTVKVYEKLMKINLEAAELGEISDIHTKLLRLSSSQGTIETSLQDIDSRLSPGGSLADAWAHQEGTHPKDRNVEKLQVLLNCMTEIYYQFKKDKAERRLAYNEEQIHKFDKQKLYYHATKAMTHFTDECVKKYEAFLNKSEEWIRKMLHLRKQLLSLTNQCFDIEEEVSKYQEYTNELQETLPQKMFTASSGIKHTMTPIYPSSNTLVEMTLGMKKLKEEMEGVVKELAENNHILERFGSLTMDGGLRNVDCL
Experimental: as §1, §2, §3, §4, §5

SIK2 = molecular target: T3, SIK2 (Homo sapiens, UniProt Q9H0K1); test: SIK2 radiolabelled 33P-ATP Kinase HotSpot assay (Reaction Biology Corporation); format: biochemical; conditions: IC50 at apparent Km for ATP (30 μM), 20 μM peptide substrate; read-out: Inhibition of SIK2
T3 construct: purchased Reaction Biology Corporation
T3 sequence (Q9H0K1 whole entry): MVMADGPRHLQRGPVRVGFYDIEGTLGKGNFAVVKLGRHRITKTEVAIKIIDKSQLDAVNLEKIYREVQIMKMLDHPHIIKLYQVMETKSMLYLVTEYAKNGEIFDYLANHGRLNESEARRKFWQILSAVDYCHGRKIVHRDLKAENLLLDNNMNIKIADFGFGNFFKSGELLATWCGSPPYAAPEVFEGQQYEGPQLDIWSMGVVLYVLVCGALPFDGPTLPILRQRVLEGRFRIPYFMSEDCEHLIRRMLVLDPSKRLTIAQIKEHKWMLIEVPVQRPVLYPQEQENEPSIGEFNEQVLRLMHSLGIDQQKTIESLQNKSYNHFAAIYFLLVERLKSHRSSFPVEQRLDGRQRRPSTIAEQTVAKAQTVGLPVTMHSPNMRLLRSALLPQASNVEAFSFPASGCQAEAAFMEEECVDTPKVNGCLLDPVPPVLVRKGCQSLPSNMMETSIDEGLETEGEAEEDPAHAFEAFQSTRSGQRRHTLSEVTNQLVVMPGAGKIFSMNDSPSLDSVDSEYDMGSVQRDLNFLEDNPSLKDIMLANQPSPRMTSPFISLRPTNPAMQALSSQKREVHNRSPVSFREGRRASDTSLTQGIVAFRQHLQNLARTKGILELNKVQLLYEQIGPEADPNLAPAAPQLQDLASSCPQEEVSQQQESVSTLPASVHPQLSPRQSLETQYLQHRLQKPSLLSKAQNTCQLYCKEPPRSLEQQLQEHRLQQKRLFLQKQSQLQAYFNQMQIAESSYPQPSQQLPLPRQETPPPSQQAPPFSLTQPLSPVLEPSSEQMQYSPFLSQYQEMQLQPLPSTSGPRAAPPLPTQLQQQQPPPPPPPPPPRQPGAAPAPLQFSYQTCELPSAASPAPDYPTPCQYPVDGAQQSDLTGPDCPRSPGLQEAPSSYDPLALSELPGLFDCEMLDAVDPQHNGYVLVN
Experimental: SIK2 was measured using radiolabelled ^33P-ATP using the Kinase HotSpot℠ technology of Reaction Biology Corporation. The peptide AMARAASAALAARRR [SEQ ID No 2] at a concentration of 20 μM was used as the substrate. IC50 values were determined at the apparent Km for ATP (30 μM)

[3] = mouse, Table 3, comparative examples, IV typically 0.5 mg/Kg
[4] = mouse, plasma, Table 3, comparative examples, IV typically 0.5 mg/Kg, read-out: Vd
[5] = Table 3, comparative examples, IV typically 0.5 mg/Kg
[6] = Table 2, IV typically 0.5 mg/Kg

Row | half-life [1, 3] [min] | Human Heps (μL/min/10^6 cells) [2] [μL/min/10^6 cells] | IC50 (IKKε) [nM] | IC50 (TBK1) [nM] | Vd [1, 6] [L/kg] | t½ [1, 6] [min] | Human hepatocyte stability (μL/min/10^6 cells) [2] [μL/min/10^6 cells] | Compound | also measured
1 | 30 | 13 | – | – | – | – | – | N#Cc1cc(-c2ccnc(Nc3ccc(CN4CCOCC4)nc3)n2)cnc1N1CC[C@H](F)C1 [Comp. Ex. 1] | Vd [1, 4]: 0.3 L/kg
2 | – | ≤6 | – | – | – | – | – | N#Cc1cc(-c2ccnc(Nc3ccc(CN4CCNC(=O)C4)nc3)n2)cnc1N1CC[C@H](F)C1 [Comp. Ex. 2] | Vd [1, 5]: 0.74 L/kg; t½ [1, 5]: 40.8 min
3 | – | 48 | – | – | – | – | – | CN1CCN(c2ccc(Nc3nccc(-c4cnc(N5CC[C@H](F)C5)c(C#N)c4)n3)cn2)CC1 [Comp. Ex. 3] | –
4 | 30 | 6 | – | – | – | – | – | N#Cc1cc(-c2ccnc(Nc3ccc(NC(=O)CN4CCOCC4)nc3)n2)cnc1N1CC[C@H](F)C1 [Comp. Ex. 4] | Vd [1, 5]: 0.54 L/kg
5 | 42 | 6 | – | – | – | – | – | N#Cc1cc(-c2ccnc(Nc3ccnc(NC(=O)CN4CCOCC4)c3)n2)cnc1N1CC[C@H](F)C1 [Comp. Ex. 5] | Vd [1, 4]: 0.7 L/kg
6 | – | – | 16 | 9 | 3.3 | 102 | 11 | CCN1CCN(Cc2ccc(Nc3nccc(-c4cnc(N5CC[C@H](F)C5)c(C#N)c4)n3)cn2)CC1 [Ex. No. 1, 5-{2-[6-(4-Ethyl-piperazin-1-ylmethyl)-pyridin-3-ylamino]-pyrimidin-4-yl}-2-((S)-3-fluoro-pyrrolidin-1-yl)-nicotinonitrile] | IC50 (SIK2): 7 nM
7 | – | – | 21 | 20 | 5.6 | 132 | 8 | CCN1CCN(Cc2ccc(Nc3nccc(-c4cnc(N5CC[C@@H](F)C5)c(C#N)c4)n3)cn2)CC1 [Ex. No. 2, 5-{2-[6-(4-Ethyl-piperazin-1-ylmethyl)-pyridin-3-ylamino]-pyrimidin-4-yl}-2-((R)-3-fluoro-pyrrolidin-1-yl)-nicotinonitrile] | –
8 | – | – | 24 | 17 | 4.6 | 144 | 7 | CN1CCN(Cc2ccc(Nc3nccc(-c4cnc(N5CC[C@H](F)C5)c(C#N)c4)n3)cn2)CC1 [Ex. No. 3, 2-((S)-3-Fluoro-pyrrolidin-1-yl)-5-{2-[6-(4-methyl-piperazin-1-ylmethyl)-pyridin-3-ylamino]-pyrimidin-4-yl}-nicotinonitrile] | –
